The results in this text go back to ChEMBL document CHEMBL1144646, “Imidazole moiety replacements in the 3-(1H-benzo[d]imidazol-2-yl)pyridin-2(1H)-one inhibitors of insulin-like growth factor receptor-1 (IGF-1R) to improve cytochrome P450 profile” (Bioorg Med Chem Lett, 2007).

The target in assay [1] is Cytochrome P450 3A4 (Homo sapiens, UniProt P08684). In words: Inhibition of CYP3A4 in microsomes.
Assay [2] addresses Cytochrome P450 2C19 (Homo sapiens, UniProt P33261). Nature of the assay: Inhibition of CYP2C19 in microsomes. In kind it is ADME.
Assay [3] concerns the target T1, Cytochrome P450 1A2 (Homo sapiens, UniProt P05177).
T1 sequence (P05177 whole entry): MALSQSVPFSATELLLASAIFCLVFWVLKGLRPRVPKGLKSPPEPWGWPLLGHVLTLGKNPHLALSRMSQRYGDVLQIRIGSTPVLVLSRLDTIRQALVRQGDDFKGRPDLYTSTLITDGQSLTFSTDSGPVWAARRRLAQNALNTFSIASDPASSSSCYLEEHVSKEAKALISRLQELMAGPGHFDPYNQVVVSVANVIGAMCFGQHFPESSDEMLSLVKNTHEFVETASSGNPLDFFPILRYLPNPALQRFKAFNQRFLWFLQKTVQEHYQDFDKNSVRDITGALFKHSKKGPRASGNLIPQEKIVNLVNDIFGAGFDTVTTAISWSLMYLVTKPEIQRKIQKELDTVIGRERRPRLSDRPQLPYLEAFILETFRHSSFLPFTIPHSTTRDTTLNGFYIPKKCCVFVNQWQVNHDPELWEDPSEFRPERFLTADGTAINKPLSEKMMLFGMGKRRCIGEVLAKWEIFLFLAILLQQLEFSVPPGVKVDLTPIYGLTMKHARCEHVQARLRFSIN
In words: Inhibition of CYP1A2 in microsomes. The class given is ADME.

Assay [4] concerns the target Cytochrome P450 2C9 (Homo sapiens, UniProt P11712). Nature of the assay: Inhibition of CYP2C9 in microsomes. The class given is ADME.
In assay [5] the target is Cytochrome P450 2D6 (Homo sapiens, UniProt P10635). In words: Inhibition of CYP2D6 in microsomes. In kind it is ADME.
Chain of Cytochrome P450 2D6 (P10635 whole entry): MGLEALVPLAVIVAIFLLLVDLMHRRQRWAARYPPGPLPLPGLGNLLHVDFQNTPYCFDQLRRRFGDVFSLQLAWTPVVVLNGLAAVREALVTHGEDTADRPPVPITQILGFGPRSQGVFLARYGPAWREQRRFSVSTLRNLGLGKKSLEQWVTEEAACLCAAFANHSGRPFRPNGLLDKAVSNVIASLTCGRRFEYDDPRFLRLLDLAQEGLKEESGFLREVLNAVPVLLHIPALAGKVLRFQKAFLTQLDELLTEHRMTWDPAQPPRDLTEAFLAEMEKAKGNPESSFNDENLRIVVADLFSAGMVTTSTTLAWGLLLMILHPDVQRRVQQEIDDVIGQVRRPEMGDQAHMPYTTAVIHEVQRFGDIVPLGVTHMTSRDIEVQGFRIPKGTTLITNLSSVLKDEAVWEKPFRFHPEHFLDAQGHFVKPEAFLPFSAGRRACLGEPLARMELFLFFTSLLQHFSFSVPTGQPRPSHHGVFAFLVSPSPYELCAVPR

Chain of Cytochrome P450 3A4 (P08684 whole entry): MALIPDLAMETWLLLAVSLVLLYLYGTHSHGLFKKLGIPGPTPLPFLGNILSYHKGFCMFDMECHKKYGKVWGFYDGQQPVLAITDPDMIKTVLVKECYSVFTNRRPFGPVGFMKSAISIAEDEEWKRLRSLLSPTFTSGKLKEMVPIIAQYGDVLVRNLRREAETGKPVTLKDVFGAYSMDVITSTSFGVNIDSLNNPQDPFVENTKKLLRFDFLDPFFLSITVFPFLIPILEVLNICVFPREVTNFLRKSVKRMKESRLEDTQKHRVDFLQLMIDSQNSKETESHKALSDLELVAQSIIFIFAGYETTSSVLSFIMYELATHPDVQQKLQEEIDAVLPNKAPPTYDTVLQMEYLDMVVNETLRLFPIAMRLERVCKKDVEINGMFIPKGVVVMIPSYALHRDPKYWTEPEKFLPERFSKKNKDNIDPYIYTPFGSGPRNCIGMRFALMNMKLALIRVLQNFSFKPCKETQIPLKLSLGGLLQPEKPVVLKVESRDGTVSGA
Chain of Cytochrome P450 2C19 (P33261 whole entry): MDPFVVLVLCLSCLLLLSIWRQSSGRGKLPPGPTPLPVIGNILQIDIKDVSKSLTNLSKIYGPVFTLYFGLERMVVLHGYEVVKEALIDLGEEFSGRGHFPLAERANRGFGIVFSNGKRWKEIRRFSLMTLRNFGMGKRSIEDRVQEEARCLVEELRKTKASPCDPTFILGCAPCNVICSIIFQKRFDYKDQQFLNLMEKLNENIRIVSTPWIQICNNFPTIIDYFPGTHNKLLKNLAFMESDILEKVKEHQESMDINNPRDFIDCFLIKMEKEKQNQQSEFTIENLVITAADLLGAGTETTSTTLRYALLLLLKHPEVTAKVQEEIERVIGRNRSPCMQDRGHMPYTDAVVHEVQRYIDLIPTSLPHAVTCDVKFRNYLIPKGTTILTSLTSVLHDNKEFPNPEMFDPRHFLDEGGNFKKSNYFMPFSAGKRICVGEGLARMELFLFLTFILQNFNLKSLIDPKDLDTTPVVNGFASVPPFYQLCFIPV
Chain of Cytochrome P450 2C9 (P11712 whole entry): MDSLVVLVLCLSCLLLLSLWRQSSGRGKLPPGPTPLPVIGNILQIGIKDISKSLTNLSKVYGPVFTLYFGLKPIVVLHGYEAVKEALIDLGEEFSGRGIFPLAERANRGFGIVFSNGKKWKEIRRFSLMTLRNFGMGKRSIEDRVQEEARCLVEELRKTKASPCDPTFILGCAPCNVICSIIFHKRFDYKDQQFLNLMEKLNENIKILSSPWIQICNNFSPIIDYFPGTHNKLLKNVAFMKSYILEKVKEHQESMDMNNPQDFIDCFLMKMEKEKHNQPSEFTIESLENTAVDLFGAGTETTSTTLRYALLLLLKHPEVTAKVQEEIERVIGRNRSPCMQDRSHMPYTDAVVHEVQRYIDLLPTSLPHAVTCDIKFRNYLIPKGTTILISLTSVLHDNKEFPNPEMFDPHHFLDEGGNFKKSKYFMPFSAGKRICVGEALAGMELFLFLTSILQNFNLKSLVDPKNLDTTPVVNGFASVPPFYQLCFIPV

By IC50 is commonly meant the concentration needed to halve the response being measured. Low values mean inhibition by little substance, high ones a need for much substance. Turning to `Cc1cc(C2=NCCN2C)cc2[nH]c(-c3c(NCC(O)c4cccc(Cl)c4)cc[nH]c3=O)nc12` (configuration not stated), the half-inhibitory concentration (IC50) is 35 µM in assay [1], 17 µM in assay [2], 53 µM in assay [3] and 91 µM in assay [4].
For the molecule `Cc1cc(-n2ccnc2)cc2[nH]c(-c3c(N[C@H](CO)Cc4ccccc4)cc[nH]c3=O)nc12`, the half-maximal inhibitory concentration (IC50) in assay [1] was 0.06 µM; in assay [2], under 0.04 µM; in assay [5], 0.56 µM; in assay [3] it was under 0.04 µM; in assay [4], under 0.04 µM.
Consider `Cc1cccc2[nH]c(-c3c(NCC(O)c4cccc(Cl)c4)cc[nH]c3=O)nc12` (configuration not stated), for which the half-inhibitory concentration (IC50) in assay [1] turned out to be 0.71 µM; in assay [2] it was 0.26 µM; in assay [3] it was 0.38 µM; in assay [4], 1.5 µM.
For `Cc1cc(C(=O)N(C)C)cc2[nH]c(-c3c(NCC(O)c4cccc(Cl)c4)cc[nH]c3=O)nc12` (configuration not stated) the same measures were 2.2 µM, 1.7 µM, 15 µM and 2.8 µM.
For `Cc1cc(-c2ccccc2)cc2[nH]c(-c3c(N[C@H](CO)Cc4ccccc4)cc[nH]c3=O)nc12` the same measures were 3.6 µM, 0.53 µM, 0.58 µM and 2.3 µM.
The like results for `Cc1c[nH]c(-c2cc(C)c3[nH]c(-c4c(NCC(O)c5cccc(Cl)c5)cc[nH]c4=O)nc3c2)n1` (configuration not stated) were, in that order, 0.36 µM, 2 µM, 5.8 µM and 7.8 µM.
As to `CNC(=O)c1cc(C)c2nc(-c3c(NCC(O)c4cccc(Cl)c4)cc[nH]c3=O)[nH]c2c1` (configuration not stated), the IC50 in assay [1] worked out at 3.7 µM; in assay [2], 2.1 µM; in assay [3], 21 µM; in assay [4], 2.9 µM.
As for `Cc1cc(-c2ccc(F)cc2)cc2[nH]c(-c3c(N[C@H](CO)Cc4ccccc4)cc[nH]c3=O)nc12`, the half-maximal inhibitory concentration (IC50) is 6.3 µM in assay [1], 1 µM in assay [2], 3.2 µM in assay [3] and 4 µM in assay [4].
As to `Cc1cc(C2=NCCCN2)cc2[nH]c(-c3c(NCC(O)c4cccc(Cl)c4)cc[nH]c3=O)nc12` (configuration not stated), the IC50 was determined as 16 µM in assay [1], 8.5 µM in assay [2], 20 µM in assay [3] and 100 µM in assay [4].
Consider `Cc1cc(-n2ccnc2)cc2nc(-c3c(NCc4ccccn4)cc[nH]c3=O)[nH]c12`, for which the IC50 was 0.08 µM in assay [1]; 0.1 µM in assay [2]; 5.7 µM in assay [5]; under 0.03 µM in assay [3]; under 0.03 µM in assay [4].
`Cc1cc(C(=O)NC2CCCC2)cc2[nH]c(-c3c(NCC(O)c4cccc(Cl)c4)cc[nH]c3=O)nc12` (configuration not stated): the IC50 in assay [1] came to 1.6 µM; in assay [2] it was 0.48 µM; in assay [3], 9.8 µM; in assay [4], 3.5 µM.
The like results for `COc1ccc(-c2cc(C)c3nc(-c4c(N[C@H](CO)Cc5ccccc5)cc[nH]c4=O)[nH]c3c2)cc1` were, in that order, 6.8 µM, 2.2 µM, 12 µM and 11 µM.
Regarding `Cc1cc(C2=NC(C)CN2)cc2[nH]c(-c3c(NCC(O)c4cccc(Cl)c4)cc[nH]c3=O)nc12` (configuration not stated), the IC50 in assay [2] is 4.7 µM; in assay [3] it was 10 µM; in assay [4] it was 67 µM.
Turning to `Cc1cc(C(=O)NC2CCCCC2)cc2[nH]c(-c3c(NCC(O)c4cccc(Cl)c4)cc[nH]c3=O)nc12` (configuration not stated), the IC50 was 11 µM in assay [1], 1.3 µM in assay [2], 59 µM in assay [3] and 6.6 µM in assay [4].
For `Cc1cc(Br)cc2[nH]c(-c3c(N[C@H](CO)Cc4ccccc4)cc[nH]c3=O)nc12` the same measures were 3.1 µM, 0.32 µM, 0.052 µM and 0.72 µM.
The like results for `Cc1cc(-n2ccnc2)cc2[nH]c(-c3c(NCC(O)c4cccc(Cl)c4)cc[nH]c3=O)nc12` (configuration not stated) were, in that order, under 0.046 µM, under 0.04 µM, under 0.04 µM and under 0.04 µM.
For `Cc1cc(C2=NC(C)(C)CN2)cc2[nH]c(-c3c(NCC(O)c4cccc(Cl)c4)cc[nH]c3=O)nc12` (configuration not stated) the same measures were 13 µM, 5.1 µM, 11 µM and 47 µM.
For `CNC(=N)c1cc(C)c2nc(-c3c(NCC(O)c4cccc(Cl)c4)cc[nH]c3=O)[nH]c2c1` (configuration not stated), the IC50 in assay [1] was found to be 15 µM; in assay [2], 3.9 µM; in assay [3], 25 µM; in assay [4], 76 µM.
As to `Cc1cc(C(=O)NC2CC2)cc2[nH]c(-c3c(NCC(O)c4cccc(Cl)c4)cc[nH]c3=O)nc12` (configuration not stated), the 50% inhibitory concentration (IC50) in assay [1] amounted to 10 µM; in assay [2] it was 3.5 µM; in assay [3], 93 µM; in assay [4] it was 8.1 µM.
